Laboratory results as given in ChEMBL document CHEMBL1201862, “PubChem BioAssay data set” (2004).
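Test compounds were applied to cells in 96-well plates for 48 hours at 5 doses. GI50: concentration for 50% inhibition of growth.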 The source made the active and inactive calls. Rule as the data show it: active = GI50 up to about 1.1 µM and inactive = higher.

How the values were obtained:
Assay in all cases: DTP human tumour cell line panel, 48 h
SNB-78 = test system: SNB-78
DMS-273 = test system: DMS-273
KM-20L2 = test system: KM-20L2
M19-MEL = test system: M19-MEL
DLD-1 = test system: DLD-1
DMS-114 = test system: DMS-114
XF498 = test system: XF498
RXF 631 = test system: RXF 631
HOP-18 = test system: HOP-18

Measured: GI50

CCCC(C)C[C@@H](C)CC(C)/C=C(\C)c1oc(=O)c(C)c(O)c1C.CC[C@@H](C)C[C@@H](C)C[C@@H](C)/C=C(\C)c1oc(=O)c(C)c(O)c1C (stereo partly specified)
inactive: SNB-78 20.9 µM | DMS-273 18.5 µM | KM-20L2 12.6 µM | M19-MEL 10 µM | DLD-1 13.5 µM | DMS-114 16.8 µM

Cc1c(Cl)c2ccccc2n1S(=O)(=O)c1ccccc1
inactive: DMS-273 38.7 µM | KM-20L2 26.5 µM | DLD-1 71.6 µM | DMS-114 37.9 µM | XF498 > 100 µM

O=C1OC(=O)C([Se]c2ccccc2)=C1[Se]c1ccccc1
inactive: RXF 631 > 100 µM | SNB-78 > 100 µM | KM-20L2 > 100 µM | DLD-1 > 100 µM | HOP-18 > 100 µM | DMS-114 > 100 µM

CCOC(=O)c1cnc2cc3cccccc3n2c1=O
inactive: SNB-78 > 100 µM | DMS-273 31.8 µM | KM-20L2 > 100 µM | DLD-1 > 100 µM | DMS-114 35 µM

CCCCCCN(N)C(=O)CC#N
inactive: RXF 631 98.9 µM | SNB-78 > 100 µM | DMS-273 > 100 µM | KM-20L2 > 100 µM | M19-MEL > 100 µM | DLD-1 87.3 µM | HOP-18 > 100 µM | DMS-114 32.2 µM

Cc1no[n+]([O-])c1/C=N/NS(=O)(=O)c1ccccc1
inactive: KM-20L2 > 100 µM | M19-MEL > 100 µM | DLD-1 > 100 µM | HOP-18 > 100 µM | DMS-114 > 100 µM

C/C(=N/N)c1ccc2[nH]c3c(C)cc([N+](=O)[O-])c(C)c3c2c1
inactive: DMS-273 4.52 µM | M19-MEL 11.3 µM | DLD-1 3.18 µM | HOP-18 10.7 µM | DMS-114 9.89 µM | XF498 11.4 µM

COCNC(=NC#N)NCOC
inactive: RXF 631 > 100 µM | DMS-273 > 47.1 µM | KM-20L2 > 76 µM | M19-MEL > 59.8 µM | DLD-1 > 62.8 µM | HOP-18 > 100 µM | DMS-114 > 51.8 µM | XF498 > 100 µM

O=C(CC1(O)C(=O)Nc2c(Cl)cc(Cl)cc21)c1cccc([N+](=O)[O-])c1 (stereo unspecified)
inactive: RXF 631 24.8 µM | SNB-78 41.5 µM | DMS-273 39.4 µM | KM-20L2 52.1 µM | M19-MEL 5.14 µM | DLD-1 43.2 µM | HOP-18 32.3 µM | DMS-114 21.5 µM | XF498 20.7 µM

COc1ccc([N+]2=NC(c3ccc([N+](=O)[O-])cc3)=NN(c3ccccc3)C2)cc1.[O-][Cl+3]([O-])([O-])[O-]
inactive: SNB-78 > 100 µM | DMS-273 > 100 µM | KM-20L2 58.9 µM | DLD-1 34.9 µM | DMS-114 40.6 µM | XF498 53.6 µM

CCOC(=O)c1c[nH]c2c(ccc3nn(C)nc32)c1=O
inactive: RXF 631 > 100 µM | SNB-78 15.5 µM | DMS-273 19.9 µM | KM-20L2 > 100 µM | M19-MEL > 100 µM | DLD-1 50.4 µM | HOP-18 > 100 µM | DMS-114 49.8 µM | XF498 > 100 µM

Oc1ccccc1/C=C/c1csnn1
inactive: RXF 631 > 100 µM | SNB-78 > 100 µM | DMS-273 > 100 µM | KM-20L2 > 100 µM | M19-MEL > 100 µM | DLD-1 > 100 µM | HOP-18 > 100 µM | DMS-114 > 84.1 µM | XF498 > 100 µM

CC(C(=O)c1ccc(Cl)cc1)C1OC(=O)C(Cl)=C1Cl (stereo unspecified)
inactive: RXF 631 > 100 µM | KM-20L2 86.1 µM | M19-MEL 23 µM | DLD-1 21.6 µM | HOP-18 50.4 µM | DMS-114 26.2 µM | XF498 20.5 µM

O=NN(CCCl)C(=O)N[C@H]1CC[C@H](CC(=O)O)CC1
inactive: SNB-78 > 100 µM | DMS-273 > 100 µM | KM-20L2 > 46.5 µM | M19-MEL > 100 µM | DLD-1 > 100 µM | HOP-18 > 78.7 µM | DMS-114 61.9 µM | XF498 > 100 µM

Cc1cc(Cl)ccc1NC(=O)/C(=N\NC(C)(C)C)C(C#N)c1nc(-c2ccc([N+](=O)[O-])cc2)cs1 (stereo unspecified)
inactive: RXF 631 > 100 µM | SNB-78 > 100 µM | DMS-273 > 100 µM | KM-20L2 > 100 µM | M19-MEL > 100 µM | DLD-1 > 100 µM | HOP-18 > 100 µM | DMS-114 > 100 µM | XF498 > 100 µM
